Each compound was assayed against Beta-secretase 1 (Homo sapiens, UniProt P56817) (assay: Inhibition of human recombinant BACE1 expressed in Escherichia coli BL21(DE3) using Biotin-XSEVNLDAEFRHDSGC-Eu as substrate after 3 hrs by HTRF assay).
Chain of Beta-secretase 1 (P56817 whole entry): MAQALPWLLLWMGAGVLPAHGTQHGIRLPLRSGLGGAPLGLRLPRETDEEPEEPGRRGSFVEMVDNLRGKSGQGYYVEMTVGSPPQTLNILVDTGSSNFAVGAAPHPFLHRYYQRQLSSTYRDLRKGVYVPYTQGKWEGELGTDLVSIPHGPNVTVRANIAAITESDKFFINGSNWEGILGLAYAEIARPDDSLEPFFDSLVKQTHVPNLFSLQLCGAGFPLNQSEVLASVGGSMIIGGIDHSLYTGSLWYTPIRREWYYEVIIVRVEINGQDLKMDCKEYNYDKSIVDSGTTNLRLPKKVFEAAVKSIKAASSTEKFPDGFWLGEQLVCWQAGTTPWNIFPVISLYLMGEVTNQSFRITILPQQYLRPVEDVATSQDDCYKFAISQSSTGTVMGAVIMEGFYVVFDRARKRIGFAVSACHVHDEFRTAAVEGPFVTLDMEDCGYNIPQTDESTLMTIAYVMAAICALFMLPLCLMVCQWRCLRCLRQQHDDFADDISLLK
With `CSc1cccc(-c2cccc([C@@H]3C[C@@H]3c3cc(=O)n(C)c(N)n3)c2)c1` the IC50 was 47.5 µM. For `COc1ccc(-c2cccc([C@@H]3C[C@@H]3c3cc(=O)n(C)c(N)n3)c2)cc1`, the IC50 was 30.8 µM. `Cn1c(N)nc([C@H]2C[C@H]2c2cccc(CCCc3ccccc3)c2)cc1=O` gave an IC50 greater than 200 µM. Work on `Cc1cccc(CCc2cccc([C@@H]3C[C@@H]3c3cc(=O)n(C)c(N)n3)c2)c1` yielded an IC50 greater than 200 µM. `Cn1c(N)nc([C@H]2C[C@H]2c2cccc(Cc3ccccc3)c2)cc1=O` showed an IC50 greater than 200 µM. `Cn1c(N)nc([C@H]2C[C@H]2c2cccc(C#Cc3ccccc3)c2)cc1=O` was tested, and the IC50 was greater than 200 µM. For `Cc1cccc(-c2cccc([C@@H]3C[C@@H]3c3cc(=O)n(C)c(N)n3)c2)c1`, the IC50 was 74.9 µM. With `CCOc1cccc(-c2cccc([C@@H]3C[C@@H]3c3cc(=O)n(C)c(N)n3)c2)c1` the IC50 was 39.4 µM. With `Cc1ccc(CCc2cccc([C@@H]3C[C@@H]3c3cc(=O)n(C)c(N)n3)c2)cc1` the IC50 was greater than 200 µM. Compound `COc1cncc(-c2cccc([C@@H]3C[C@@H]3c3cc(=O)n(C)c(N)n3)c2)n1` has an IC50 of 84.9 µM. `Cn1c(N)nc(CCc2cccc(CCc3ccccc3)c2)cc1=O` was tested, and the IC50 was greater than 200 µM. Work on `Cn1c(N)nc([C@H]2C[C@H]2c2cccc(CCc3ccccc3)c2)cc1=O` yielded an IC50 of 22.2 µM. `Cn1c(N)nc([C@H]2C[C@H]2c2cccc(/C=C/c3ccccc3)c2)cc1=O` was tested, and the IC50 was greater than 200 µM. `Cn1c(N)nc([C@H]2C[C@H]2c2cccc(-c3cccc(N)c3)c2)cc1=O` showed an IC50 greater than 200 µM. For `Cn1c(N)nc([C@H]2C[C@H]2c2cccc(-c3cccc(F)c3)c2)cc1=O`, the IC50 was 72.4 µM. Compound `Cc1ccccc1CCc1cccc([C@@H]2C[C@@H]2c2cc(=O)n(C)c(N)n2)c1` has an IC50 of 120 µM. Work on `CN(C)c1cccc(-c2cccc([C@@H]3C[C@@H]3c3cc(=O)n(C)c(N)n3)c2)c1` yielded an IC50 greater than 200 µM. Compound `COc1cccc(CCc2cccc([C@@H]3C[C@@H]3c3cc(=O)n(C)c(N)n3)c2)c1` has an IC50 of 100 µM.

Reference: ChEMBL document CHEMBL2380213, “Conformational restriction approach to BACE1 inhibitors II: SAR study of the isocytosine derivatives fixed with a cis-cyclopropane ring” (Bioorg Med Chem Lett, 2013)
